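Cultured in 96-well plates, cells were exposed to test compound for 48 hours across five concentrations. GI50 is the concentration that inhibits growth by half. TGI is the concentration that stops growth completely.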
What was measured:
Test in all cases: growth of human tumour cells (NCI), 48 h
786-0 renal = test system: 786-0 renal
A498 renal = test system: A498 renal
A549 NSCLC = test system: A549 NSCLC
ACHN renal = test system: ACHN renal
BT-549 breast = test system: BT-549 breast
CAKI-1 renal = test system: CAKI-1 renal
CCRF-CEM leukemia = test system: CCRF-CEM leukemia
COLO 205 colon = test system: COLO 205 colon
DU-145 prostate = test system: DU-145 prostate
EKVX NSCLC = test system: EKVX NSCLC
HCC-2998 colon = test system: HCC-2998 colon
HCT-116 colon = test system: HCT-116 colon
HCT-15 colon = test system: HCT-15 colon
HL-60(TB) leukemia = test system: HL-60(TB) leukemia
HOP-62 NSCLC = test system: HOP-62 NSCLC
HOP-92 NSCLC = test system: HOP-92 NSCLC
HS 578T breast = test system: HS 578T breast
IGROV1 ovarian = test system: IGROV1 ovarian
K-562 leukemia = test system: K-562 leukemia
KM12 colon = test system: KM12 colon
LOX IMVI melanoma = test system: LOX IMVI melanoma
M14 melanoma = test system: M14 melanoma
MALME-3M melanoma = test system: MALME-3M melanoma
MCF7 breast = test system: MCF7 breast
MDA-MB-231 breast = test system: MDA-MB-231 breast
MDA-MB-435 = test system: MDA-MB-435
MDA-MB-468 breast = test system: MDA-MB-468 breast
MOLT-4 leukemia = test system: MOLT-4 leukemia
NCI-H226 lung = test system: NCI-H226 lung
NCI-H23 lung = test system: NCI-H23 lung
NCI-H460 lung = test system: NCI-H460 lung
NCI-H522 lung = test system: NCI-H522 lung
NCI/ADR-RES ovarian = test system: NCI/ADR-RES ovarian
OVCAR-3 ovarian = test system: OVCAR-3 ovarian
OVCAR-4 ovarian = test system: OVCAR-4 ovarian
OVCAR-5 ovarian = test system: OVCAR-5 ovarian
OVCAR-8 ovarian = test system: OVCAR-8 ovarian
PC-3 prostate = test system: PC-3 prostate
RPMI-8226 leukemia = test system: RPMI-8226 leukemia
RXF 393 renal = test system: RXF 393 renal
SF-268 CNS = test system: SF-268 CNS
SF-295 CNS = test system: SF-295 CNS
SF-539 CNS = test system: SF-539 CNS
SK-MEL-2 melanoma = test system: SK-MEL-2 melanoma
SK-MEL-28 melanoma = test system: SK-MEL-28 melanoma
SK-MEL-5 melanoma = test system: SK-MEL-5 melanoma
SK-OV-3 ovarian = test system: SK-OV-3 ovarian
SN12C renal = test system: SN12C renal
SNB-19 CNS = test system: SNB-19 CNS
SNB-75 CNS = test system: SNB-75 CNS
SW-620 colon = test system: SW-620 colon
T-47D breast = test system: T-47D breast
TK-10 renal = test system: TK-10 renal
U251 CNS = test system: U251 CNS
UACC-257 melanoma = test system: UACC-257 melanoma
UACC-62 melanoma = test system: UACC-62 melanoma
UO-31 renal = test system: UO-31 renal

Molecule `COc1ccc(C(=O)/C=C/c2cc(F)cc(C(F)(F)F)c2)cc1S(N)(=O)=O` has a GI50 (786-0 renal) of 1.84 µM, a TGI (786-0 renal) of 3.79 µM and a GI50 (A498 renal) of 13.9 µM. For the same molecule, the TGI (A498 renal) was 26.8 µM, the GI50 (A549 NSCLC) was 4.3 µM and the TGI (A549 NSCLC) was 23.1 µM. For the same molecule, the GI50 (ACHN renal) was 1.72 µM, the TGI (ACHN renal) was 3.28 µM and the GI50 (BT-549 breast) was 6.4 µM. The TGI (BT-549 breast) was 19.5 µM, the GI50 (CAKI-1 renal) was 4.65 µM and the TGI (CAKI-1 renal) was 17.7 µM. It also gave a GI50 (CCRF-CEM leukemia) of 1.5 µM, a TGI (CCRF-CEM leukemia) of 6.79 µM and a GI50 (COLO 205 colon) of 3.79 µM. It also gave a TGI (COLO 205 colon) of 13.2 µM, a GI50 (DU-145 prostate) of 12 µM and a TGI (DU-145 prostate) of 25 µM. It also gave a GI50 (EKVX NSCLC) of 5.07 µM, a TGI (EKVX NSCLC) of 18.3 µM and a GI50 (HCC-2998 colon) of 1.98 µM. It also gave a TGI (HCC-2998 colon) of 3.71 µM, a GI50 (HCT-116 colon) of 1.58 µM and a TGI (HCT-116 colon) of 3.39 µM. For the same molecule, the GI50 (HCT-15 colon) was 1.59 µM, the TGI (HCT-15 colon) was 3.39 µM and the GI50 (HL-60(TB) leukemia) was 2.33 µM. It also gave a TGI (HL-60(TB) leukemia) of 8.4 µM, a GI50 (HOP-62 NSCLC) of 7.34 µM and a TGI (HOP-62 NSCLC) of 22.2 µM. The GI50 (HOP-92 NSCLC) was 6.32 µM, the TGI (HOP-92 NSCLC) was 21.4 µM and the GI50 (HS 578T breast) was 15.9 µM. For the same molecule, the TGI (HS 578T breast) was 54.9 µM, the GI50 (IGROV1 ovarian) was 3.15 µM and the TGI (IGROV1 ovarian) was 11.6 µM. The GI50 (K-562 leukemia) was 2.05 µM, the TGI (K-562 leukemia) was over 100 µM and the GI50 (KM12 colon) was 1.96 µM. The TGI (KM12 colon) was 4.08 µM, the GI50 (LOX IMVI melanoma) was 1.42 µM and the TGI (LOX IMVI melanoma) was 2.72 µM. The GI50 (M14 melanoma) was 3.14 µM, the TGI (M14 melanoma) was 11.2 µM and the GI50 (MALME-3M melanoma) was 12.1 µM. The TGI (MALME-3M melanoma) was 24.7 µM, the GI50 (MCF7 breast) was 1.69 µM and the TGI (MCF7 breast) was 4.42 µM. It also gave a GI50 (MDA-MB-231 breast) of 2.06 µM, a TGI (MDA-MB-231 breast) of 4.81 µM and a GI50 (MDA-MB-435) of 2.02 µM. The TGI (MDA-MB-435) was 4.91 µM, the GI50 (MDA-MB-468 breast) was 1.66 µM and the TGI (MDA-MB-468 breast) was 3.34 µM. The GI50 (MOLT-4 leukemia) was 2.44 µM, the TGI (MOLT-4 leukemia) was 9.1 µM and the GI50 (NCI-H226 lung) was 8.55 µM. The TGI (NCI-H226 lung) was 23.6 µM, the GI50 (NCI-H23 lung) was 2.23 µM and the TGI (NCI-H23 lung) was 5.48 µM. It also gave a GI50 (NCI-H460 lung) of 3.41 µM, a TGI (NCI-H460 lung) of 11.8 µM and a GI50 (NCI-H522 lung) of 1.9 µM. For the same molecule, the TGI (NCI-H522 lung) was 3.98 µM, the GI50 (NCI/ADR-RES ovarian) was 2.16 µM and the TGI (NCI/ADR-RES ovarian) was 5.44 µM. For the same molecule, the GI50 (OVCAR-3 ovarian) was 3.62 µM, the TGI (OVCAR-3 ovarian) was 11.9 µM and the GI50 (OVCAR-4 ovarian) was 5.86 µM. It also gave a TGI (OVCAR-4 ovarian) of 18.7 µM, a GI50 (OVCAR-5 ovarian) of 7.88 µM and a TGI (OVCAR-5 ovarian) of 20.6 µM. For the same molecule, the GI50 (OVCAR-8 ovarian) was 3.21 µM, the TGI (OVCAR-8 ovarian) was 11.4 µM and the GI50 (PC-3 prostate) was 2.48 µM. It also gave a TGI (PC-3 prostate) of 7.3 µM, a GI50 (RPMI-8226 leukemia) of 2.13 µM and a TGI (RPMI-8226 leukemia) of 7.47 µM. For the same molecule, the GI50 (RXF 393 renal) was 3.97 µM, the TGI (RXF 393 renal) was 16.1 µM and the GI50 (SF-268 CNS) was 12 µM. It also gave a TGI (SF-268 CNS) of 43.3 µM, a GI50 (SF-295 CNS) of 3.62 µM and a TGI (SF-295 CNS) of 13.4 µM. The GI50 (SF-539 CNS) was 1.73 µM, the TGI (SF-539 CNS) was 3.17 µM and the GI50 (SK-MEL-2 melanoma) was 15.5 µM. The TGI (SK-MEL-2 melanoma) was 31.2 µM, the GI50 (SK-MEL-28 melanoma) was 2.63 µM and the TGI (SK-MEL-28 melanoma) was 7.2 µM. The GI50 (SK-MEL-5 melanoma) was 5.52 µM, the TGI (SK-MEL-5 melanoma) was 17.9 µM and the GI50 (SK-OV-3 ovarian) was 15.7 µM. The TGI (SK-OV-3 ovarian) was 31.8 µM, the GI50 (SN12C renal) was 1.88 µM and the TGI (SN12C renal) was 4.59 µM. For the same molecule, the GI50 (SNB-19 CNS) was 3.07 µM, the TGI (SNB-19 CNS) was 11.3 µM and the GI50 (SNB-75 CNS) was 2.45 µM. For the same molecule, the TGI (SNB-75 CNS) was 13.2 µM, the GI50 (SW-620 colon) was 1.81 µM and the TGI (SW-620 colon) was 3.55 µM. It also gave a GI50 (T-47D breast) of 11 µM, a TGI (T-47D breast) of 25.8 µM and a GI50 (TK-10 renal) of 4.69 µM. It also gave a TGI (TK-10 renal) of 18.5 µM, a GI50 (U251 CNS) of 1.75 µM and a TGI (U251 CNS) of 3.79 µM. For the same molecule, the GI50 (UACC-257 melanoma) was 11.3 µM, the TGI (UACC-257 melanoma) was 25.8 µM and the GI50 (UACC-62 melanoma) was 3.28 µM. For the same molecule, the TGI (UACC-62 melanoma) was 13.6 µM, the GI50 (UO-31 renal) was 1.94 µM and the TGI (UO-31 renal) was 5.1 µM.
